Measured values: patent US20240254129A1, “HETEROCYCLIC COMPOUNDS AND USES THEREOF” (Kumquat Biosciences Inc., priority 2021, published 2024)
Where two headings read alike, the source gives them in different places.

Key:
[1] = target: GST-tagged K-Ras mutant / His-tagged hSOS1 (Homo sapiens, UniProt P01116); assay: HTRF assay, K-Ras mutant / SOS1 interaction; assay type: binding; conditions: read-out: IC50 against mutant Kras
Summary of the method: (§1)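 HTRF read-out (ex 337, em 620 and 665 nm) of Ras–SOS1 equilibrium binding: Eu-anti-GST on GST-K-Ras, XL665-anti-6His on His-hSOS1. Incubation about 10 min or longer; IC50 fitted from emission ratio, compounds in duplicate at 10 μM down to 0.01 μM.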

[2] = target: T1, wildtype Kras / hSOS1 (Homo sapiens, UniProt P01116); assay: HTRF assay, wildtype Kras / SOS1 interaction; assay type: binding; conditions: read-out: IC50 against wildtype Kras
T1 construct: made in house; host or cells: E. coli BL21 (DE3)
Summary of the method: as §1

[3] = compound nos. 102-196, general methodology of example 5

T1 sequence (P01116 1-188 isoform P01116-2): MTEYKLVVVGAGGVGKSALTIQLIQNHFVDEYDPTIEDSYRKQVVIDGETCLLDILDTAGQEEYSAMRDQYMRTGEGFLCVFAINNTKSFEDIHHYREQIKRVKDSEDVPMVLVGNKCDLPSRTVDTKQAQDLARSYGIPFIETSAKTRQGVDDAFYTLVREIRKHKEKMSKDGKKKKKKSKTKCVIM
Chain of GST-tagged K-Ras mutant / His-tagged hSOS1 (P01116 whole entry G12D, form open): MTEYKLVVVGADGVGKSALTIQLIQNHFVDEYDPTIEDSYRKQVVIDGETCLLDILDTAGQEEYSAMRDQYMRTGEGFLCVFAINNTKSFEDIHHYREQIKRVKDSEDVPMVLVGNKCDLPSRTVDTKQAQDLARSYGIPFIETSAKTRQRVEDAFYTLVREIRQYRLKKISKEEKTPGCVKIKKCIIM

Compound	IC50 [1, 3] [nM]	IC50 [2, 3] [nM]	IC50 ([1]; compound nos. 401-703) [nM]	IC50 ([2]; compound nos. 401-703) [nM]
Nc1nc2c(-c3c(Cl)cc4c(N5CCCCC(F)(F)C5)nc(OCC56CCCN5CCC6)nc4c3F)cccc2s1 [Compound 116, 4-(6-chloro-4-(3,3-difluoro-azepan-1-yl)-8-fluoro-2-((tetrahydro-1H-pyrrolizin-7a(5H)-yl)methoxy)quin-azolin-7-yl)benzo[d]thiazol-2-amine]	< 500	< 500		
Fc1c(-c2cccc(-c3ccccc3)c2)c(Cl)cc2c(N3CCCCCC3)nc(OCC34CCCN3CCC4)nc12 [Compound 482, 7-([1,1′-biphenyl]-3-yl)-4-(azepan-1-yl)-6-chloro-8-fluoro-2-((tetrahydro-1H-pyrrolizin-7a(5H)-yl)meth-oxy)quinazoline]			> 500	< 500
Cc1ccc2oc(N)nc2c1-c1c(Cl)cc2c(N3CC4CCC(C3)N4)nc(OC[C@@]34CCCN3C[C@H](F)C4)nc2c1F [Compound 546, 4-(4-(3,8-diazabicyclo-[3.2.1]octan-3-yl)-6-chloro-8-fluoro-2-(((2R,7aS)-2-fluorotetrahydro-1H-pyrrol-izin-7a(5H)-yl)methoxy)-quinazolin-7-yl)-5-methyl-benzo[d]oxazol-2-amine]			< 500	> 500
Nc1nc2c(-c3ccc4c(N5CC6CCC(C5)N6)nc(OCC56CCCN5CCC6)nc4n3)ccc(F)c2s1 [Compound 412, 4-(4-(3,8-diazabicyclo-[3.2.1]octan-3-yl)-2-((tetra-hydro-1H-pyrrolizin-7a(5H)-yl)methoxy)pyrido[2,3-d]-pyrimidin-7-yl)-7-fluoro-benzo[d]thiazol-2-amine]			> 500	< 500
Nc1nc2c(-c3c(Cl)cc4c(N5CCCCC(F)(F)C5)nc(OC[C@@]56CCCN5C[C@H](F)C6)nc4c3F)ccc(F)c2s1 [Compound 168, 4-(6-chloro-4-(3,3-difluoro-azepan-1-yl)-8-fluoro-2-(((2R,7aS)-2-fluorotetra-hydro-1H-pyrrolizin-7a(5H)-yl)methoxy)quinazolin-7-yl)-7-fluorobenzo[d]thiazol-2-amine]	< 500	< 500		
CC(C)CN1CCCN(c2nc(OCC34CCCN3CCC4)nc3c(F)c(-c4ccc(F)c5sc(N)nc45)c(Cl)cc23)CC1 [Compound 460, 4-(6-chloro-8-fluoro-4-(4-isobutyl-1,4-diazepan-1-yl)-2-((tetrahydro-1H-pyrrolizin-7a(5H)-yl)methoxy)quin-azolin-7-yl)-7-fluorobenzo-[d]thiazol-2-amine-]			< 500	< 500
CN1CCC[C@H]1COc1nc(N2CCNCC(F)(F)C2)c2cc(Cl)c(-c3cccc4oc(O)nc34)c(F)c2n1 [Compound 176, 4-(6-chloro-4-(6,6-difluoro-1,4-diazepan-1-yl)-8-fluoro-2-(((S)-1-methylpyrrolidin-2-yl)methoxy)quinazolin-7-yl)benzo[d]oxazol-2-ol]	> 500	> 500		
N#CC1C2CCC1CN(c1nc(OC[C@@]34CCCN3C[C@H](F)C4)nc3c(F)c(-c4ccc(F)c5sc(N)nc45)c(Cl)cc13)C2 (stereo partly drawn) [Compound 403, (1R,5S,8S)-3-(7-(2-amino-7-fluorobenzo[d]thiazol-4-yl)-6-chloro-8-fluoro-2-(((2R,7aS)-2-fluorotetra-hydro-1H-pyrrolizin-7a(5H)-yl)methoxy)quinazolin-4-yl)-3-azabicyclo[3.2.1]-octane-8-carbonitrile]			< 500	< 500
Oc1cc(-c2c(F)cc3c(N4CC5CCC(C4)N5)nc(OCC45CCCN4CCC5)nc3c2F)c2ccccc2c1 [Compound 669, 4-(4-(3,8-diazabicyclo-[3.2.1]octan-3-yl)-6,8-difluoro-2-((tetrahydro-1H-pyrrolizin-7a(5H)-yl)methoxy)quinazolin-7-yl)naphthalen-2-ol]			< 500	> 500
Nc1nc2c(-c3c(Cl)cc4c(N5CC6CCC(C5)N6)nc(OCC5(CN6CCCC6)CC5)nc4c3F)ccc(F)c2s1 [Compound 553, 4-(4-(3,8-diazabicyclo-[3.2.1]-octan-3-yl)-6-chloro-8-fluoro-2-((1-(pyrrolidin-1-ylmethyl)cyclopropyl)meth-oxy)quinazolin-7-yl)-7-fluorobenzo[d]thiazol-2-amine]			< 500	> 500
Nc1ccc(C2CC2)c(-c2ccc3c(N4CC5CCC(C4)N5)nc(OC[C@@]45CCCN4C[C@H](F)C5)nc3c2F)n1 [Compound 458, 6-(4-(3,8-diazabicyclo-[3.2.1]octan-3-yl)-8-fluoro-2-(((2R,7aS)-2-fluorotetra-hydro-1H-pyrrolizin-7a(5H)-yl)methoxy)quinazolin-7-yl)-5-cyclopropylpyridin-2-amine]			> 500	< 500
Cc1ccc2[nH]nc(C#N)c2c1-c1c(Cl)cc2c(N3CC4CCC(C3)N4)nc(OC[C@@]34CCCN3C[C@H](F)C4)nc2c1F [Compound 632, 4-(4-(3,8-diazabicyclo-[3.2.1]octan-3-yl)-6-chloro-8-fluoro-2-(((2R,7aS)-2-fluorotetrahydro-1H-pyrrol-izin-7a(5H)-yl)methoxy)-quin-azolin-7-yl)-5-methyl-1H-indazole-3-carbonitrile]			< 500	> 500
Nc1nc2c(-c3c(Cl)cc4c(N5CCNCC(F)(F)C5)nc(OCC56CCCN5CCC6)nc4c3F)ccc(F)c2s1 [Compound 109, 4-(6-chloro-4-(6,6-difluoro-1,4-diazepan-1-yl)-8-fluoro-2-((tetrahydro-1H-pyrrol-izin-7a(5H)-yl)methoxy)-quinazolin-7-yl)-7-fluoro-benzo[d]thiazol-2-amine]	< 500	< 500		
Nc1nc2c(-c3c(Cl)cc4c(N5CCOCC(F)(F)C5)nc(OCC56CCCN5CCC6)nc4c3F)ccc(F)c2s1 [Compound 115, 4-(6-chloro-4-(6,6-difluoro-1,4-oxazepan-4-yl)-8-fluoro-2-((tetrahydro-1H-pyrrol-izin-7a(5H)-yl)methoxy)-quinazolin-7-yl)-7-fluoro-benzo[d]thiazol-2-amine]	< 500	< 500		
Fc1c(-c2ccc(F)c3[nH]nc(I)c23)c(Cl)cc2c(N3CC4CCC(C3)N4)nc(OC[C@@]34CCCN3C[C@H](F)C4)nc12 [Compound 671, 4-(3,8-diazabicyclo[3.2.1]-octan-3-yl)-6-chloro-8-fluoro-7-(7-fluoro-3-iodo-1H-indazol-4-yl)-2-(((2R,7aS)-2-fluorotetra-hydro-1H-pyrrolizin-7a(5H)-yl)methoxy)quinazoline]			> 500	> 500
CN1CCC[C@H]1COc1nc(N2CCNCC3(CC3)C2)c2cc(Cl)c(-c3cccc4sc(N)nc34)c(F)c2n1 [Compound 128, 4-(6-chloro-8-fluoro-2-(((S)-1-methylpyrrolidin-2-yl)-methoxy)-4-(5,8-diazaspiro-[2.6]nonan-5-yl)quinazolin-7-yl)benzo[d]thiazol-2-amine]	> 500	> 500		
Nc1c(-c2c(Cl)cc3c(N4CC5CCC(C4)N5)nc(OCC45CCCN4CCC5)nc3c2F)cccc1C1CC1 [Compound 695, 2-(4-(3,8-diazabicyclo-[3.2.1]octan-3-yl)-6-chloro-8-fluoro-2-((tetrahydro-1H-pyrrolizin-7a(5H)-yl)meth-oxy)quinazolin-7-yl)-6-cyclopropylaniline]			> 500	> 500
Cc1nc2c(-c3c(Cl)cc4c(N5CCNCC(F)(F)C5)nc(OC[C@@H]5CCCN5C)nc4c3F)cccc2s1 [Compound 138, 4-(6-chloro-4-(6,6-difluoro-1,4-diazepan-1-yl)-8-fluoro-2-(((S)-1-methylpyrrolidin-2-yl)methoxy)quinazolin-7-yl)-2-methylbenzo[d]thiazole]	> 500	> 500		
N#Cc1n[nH]c2c(F)ccc(-c3c(Cl)cc4c(N5CC6CCC(C5)N6)nc(OC[C@@]56CCCN5C[C@H](F)C6)nc4c3F)c12 [Compound 531, 4-(4-(3,8-diazabicyclo-[3.2.1]octan-3-yl)-6-chloro-8-fluoro-2-(((2R,7aS)-2-fluorotetrahydro-1H-pyrrol-izin-7a(5H)-yl)methoxy)-quin-azolin-7-yl)-7-fluoro-1H-indazole-3-carbonitrile]			> 500	> 500
N#Cc1c(N)sc2c(F)ccc(-c3c(Cl)cc4c(N5CCCNCC5)nc(OC[C@@]56CCCN5C[C@H](F)C6)nc4c3F)c12 [Compound 557, 2-amino-4-(6-chloro-4-(1,4-diazepan-1-yl)-8-fluoro-2-(((2R,7aS)-2-fluorotetra-hydro-1H-pyrrolizin-7a(5H)-yl)methoxy)quinazolin-7-yl)-7-fluorobenzo[b]thio-phene-3-carbonitrile]			< 500	> 500
Cc1ccc2cnn(C)c2c1-c1ccc2c(N3CC4CCC(C3)N4)nc(OC[C@@]34CCCN3C[C@H](F)C4)nc2c1F [Compound 478, 4-(3,8-diazabicyclo-[3.2.1]octan-3-yl)-7-(1,6-dimethyl-1H-indazol-7-yl)-8-fluoro-2-(((2R,7aS)-2-fluorotetrahydro-1H-pyrrolizin-7a(5H)-yl)meth-oxy)quinazoline]			> 500	< 500
Nc1nc2c(-c3c(Cl)cc4c(N5CCNCC(F)(F)C5)nc(OCC56CCCN5CCC6)nc4c3F)c(F)ccc2s1 [Compound 633, 4-(6-chloro-4-(6,6-difluoro-1,4-diazepan-1-yl)-8-fluoro-2-((tetrahydro-1H-pyrrol-izin-7a(5H)-yl)methoxy)-quinazolin-7-yl)-5-fluoro-benzo[d]thiazol-2-amine]			< 500	> 500
